# Publication PMC5501184 (Journal of medicinal chemistry, 2017)
# Target: hDAT (Homo sapiens, UniProt Q01959)
# Assay: PDSP screen: [^3H]24 binding at hDAT
# Settings: 10 μM; [^3H]24 binding, PDSP
# Sequence of hDAT (Q01959 whole entry): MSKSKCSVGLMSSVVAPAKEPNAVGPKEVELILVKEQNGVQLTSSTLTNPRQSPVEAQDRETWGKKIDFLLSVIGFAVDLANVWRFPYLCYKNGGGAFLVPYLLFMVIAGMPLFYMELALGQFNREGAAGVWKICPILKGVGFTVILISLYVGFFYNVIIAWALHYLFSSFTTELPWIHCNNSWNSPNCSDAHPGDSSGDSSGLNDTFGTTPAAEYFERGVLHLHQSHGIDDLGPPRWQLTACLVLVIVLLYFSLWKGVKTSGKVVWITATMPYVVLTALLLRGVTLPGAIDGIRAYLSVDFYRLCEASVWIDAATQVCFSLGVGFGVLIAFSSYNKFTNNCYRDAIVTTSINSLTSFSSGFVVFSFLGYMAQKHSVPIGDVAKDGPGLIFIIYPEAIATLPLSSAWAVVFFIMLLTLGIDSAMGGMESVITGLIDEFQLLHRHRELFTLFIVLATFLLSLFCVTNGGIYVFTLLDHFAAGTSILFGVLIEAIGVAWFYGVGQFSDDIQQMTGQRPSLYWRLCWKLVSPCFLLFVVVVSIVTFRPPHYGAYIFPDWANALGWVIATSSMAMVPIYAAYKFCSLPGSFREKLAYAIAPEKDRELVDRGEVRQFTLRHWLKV
row,"hDAT Binding Inhibition, % of control",Structure (SMILES)
1,slightly inhibited binding,"CNc1nc(C#Cc2ccc(Cl)s2)nc2c1ncn2[C@H]1[C@H](O)[C@H](O)[C@]2(C(=O)OC(C)C)C[C@H]12 [compound 15, Isopropyl (1S,2R,3S,4R,5S)-4-(2-((5-chlorothiophen-2-yl)ethynyl)-6-(methylamino)-9H-purin-9-yl)-2,3-dihydroxybicyclo[3.1.0]hexane-1-carboxylate]"

# Same assay, conditions: read-out: hDAT Binding Enhancement, % of control
row,remaining activity at 10 µM,Structure (SMILES)
1,133%,"CNc1nc(C#Cc2ccc(Cl)s2)nc2c1ncn2[C@H]1[C@H](O)[C@H](O)[C@]2(C(=O)NCCN)C[C@H]12 [compound 8, (1S,2R,3S,4R,5S)-N-(2-Aminoethyl)-4-(2-((5-chlorothiophen-2-yl)ethynyl)-6-(methylamino)-9H-purin-9-yl)-2,3-dihydroxybicyclo[3.1.0]hexane-1-carboxamide]"

# Same assay, conditions: read-out: hDAT Binding Inhibition, % of control
row,inhibition at 10 µM,Structure (SMILES)
1,-20 to 20%,CCNc1cc(C#Cc2ccc(Cl)s2)nc2c1ncn2[C@H]1[C@H](O)[C@H](O)[C@]2(C(=O)NC)C[C@H]12 [5b]
2,< -20%,"CNc1nc(C#Cc2ccc(Cl)s2)nc2c1ncn2[C@H]1[C@H](O)[C@H](O)[C@]2(C(=O)NCCN)C[C@H]12 [compound 8, (1S,2R,3S,4R,5S)-N-(2-Aminoethyl)-4-(2-((5-chlorothiophen-2-yl)ethynyl)-6-(methylamino)-9H-purin-9-yl)-2,3-dihydroxybicyclo[3.1.0]hexane-1-carboxamide]"
3,< -20%,"CNc1nc(C#Cc2ccc(Br)s2)nc2c1ncn2[C@H]1[C@H](O)[C@H](O)[C@]2(C(=O)OC)C[C@H]12 [compound 11, Methyl (1S,2R,3S,4R,5S)-4-(2-((5-bromothiophen-2-yl)ethynyl)-6-(methylamino)-9H-purin-9-yl)-2,3-dihydroxybicyclo[3.1.0]hexane-1-carboxylate]"
4,< -20%,"CCOC(=O)[C@@]12C[C@@H]1[C@@H](n1cnc3c(NC)nc(C#Cc4ccc(Br)s4)nc31)[C@H](O)[C@@H]2O [compound 12, Ethyl (1S,2R,3S,4R,5S)-4-(2-((5-bromothiophen-2-yl)ethynyl)-6-(methylamino)-9H-purin-9-yl)-2,3-dihydroxybicyclo[3.1.0]hexane-1-carboxylate]"
5,< -20%,"CCOC(=O)[C@@]12C[C@@H]1[C@@H](n1cnc3c(NC)nc(C#Cc4ccc(Cl)s4)cc31)[C@H](O)[C@@H]2O [compound 13, Ethyl (1S,2R,3S,4R,5S)-4-(6-((5-chlorothiophen-2-yl)ethynyl)-4-(methylamino)-1H-imidazo[4,5-c]pyridin-1-yl)-2,3-dihydroxybicyclo[3.1.0]hexane-1-carboxylate]"
6,< -20%,"CCCOC(=O)[C@@]12C[C@@H]1[C@@H](n1cnc3c(NC)nc(C#Cc4ccc(Cl)s4)nc31)[C@H](O)[C@@H]2O [compound 14, n-Propyl (1S,2R,3S,4R,5S)-4-(2-((5-chlorothiophen-2-yl)ethynyl)-6-(methylamino)-9H-purin-9-yl)-2,3-dihydroxybicyclo[3.1.0]hexane-1-carboxylate]"
7,< -20%,"CCCCOC(=O)[C@@]12C[C@@H]1[C@@H](n1cnc3c(NC)nc(C#Cc4ccc(Cl)s4)nc31)[C@H](O)[C@@H]2O [compound 16, Butyl (1S,2R,3S,4R,5S)-4-(2-((5-chlorothiophen-2-yl)ethynyl)-6-(methylamino)-9H-purin-9-yl)-2,3-dihydroxybicyclo[3.1.0]hexane-1-carboxylate]"
8,< -20%,"CNc1nc(C#Cc2ccc(Cl)s2)nc2c1ncn2[C@H]1[C@H](O)[C@H](O)[C@]2(C(=O)OCCC(C)C)C[C@H]12 [compound 17, Isopentyl (1S,2R,3S,4R,5S)-4-(2-((5-chlorothiophen-2-yl)ethynyl)-6-(methylamino)-9H-purin-9-yl)-2,3-dihydroxybicyclo[3.1.0]hexane-1-carboxylate]"
9,-20 to 20%,"CNc1nc(C#Cc2ccc(Cl)s2)nc2c1ncn2[C@H]1[C@H](O)[C@H](O)[C@]2(C(=O)OCCC3CCCCC3)C[C@H]12 [compound 18, 2-Cyclohexylethyl (1S,2R,3S,4R,5S)-4-(2-((5-chlorothiophen-2-yl)ethynyl)-6-(methylamino)-9H-purin-9-yl)-2,3-dihydroxybicyclo[3.1.0]hexane-1-carboxylate]"
